# Literature values in patent US7378418B2, “Azabicyclic heterocycles as cannabinoid receptor modulators” (Bristol-Myers Squibb Company, priority 2003, dated 2008).
# Assays:
# [1] = chronic administration for two weeks (Hildebrandt et al. 2003)
# human subjects = details: 16 week trial period, published Phase IIb data
SMILES,body weight [1],body weight (human subjects)
Cc1c(C(=O)NN2CCCCC2)nn(-c2ccc(Cl)cc2Cl)c1-c1ccc(I)cc1 [AM-251],substantial body weight reduction,–
Cc1c(C(=O)NN2CCCCC2)nn(-c2ccc(Cl)cc2Cl)c1-c1ccc(Cl)cc1 [SR-141716],–,dose-dependently reduced body weight
